{"source": "patent US20240002369A1", "about": "“NOVEL TREATMENTS OF ATTENTION DEFICIT/HYPERACTIVITY DISORDER” (priority 2020, published 2024)", "key": {"[1]": {"tested_on": "scopolamine-induced cognitive dysfunction", "test": "T-maze alternation test, scopolamine-induced cognitive dysfunction model", "type": "in vivo, Male CD-1 mice", "from_the_text": "Male CD-1 mice aged 4-5 weeks were allocated to a T-maze to perform the T-maze alternation test as described by Andriambeloson et al., 2014 (Pharma Res Per, 2 (4), 2014, e00048, included herein by reference). In brief, each mouse was placed in a T-maze consisting of a main stem and two arms. The experiment consisted of one “forced-choice” trial and 14 “free-choice” trials to evaluate the number of spontaneous alternations."}, "Lphn3.1 HOM larvae [2]": {"tested_on": "Lphn3.1 HOM larvae", "test": "Sleep behavior in freely moving zebrafish larvae during lights-off period", "conditions": "for SleepDuration (sleep bout duration) Mean Difference (I − J): average length of sleep bouts; for WakeDuration (wake bout duration) Mean Difference (I − J): average length of wake bouts; for Velocity (during sleep) Mean Difference (I − J): average velocity throughout the night time; for SleepRatio Mean Difference (I − J): share of total night time asleep; for SleepFragmentation Mean Difference (I − J): transitions between sleep and wake bouts per hour, lights-off 22:00-08:00", "procedure": "This assay provides a measure of muscle weakness and/or motor coordination, which co-occurs with certain sleep states, but can also occur independently of sleep. […] Thus, to evaluate the effect of moxonidine on sleep behavior, the sleep behavior in freely moving zebrafish (Lphn3.1 HOM larvae) following treatment with moxonidine, a comparator compound, or negative control (i.e. saline or vehicle control) was assessed in line with the criteria described by Levitas-Djerbi et al., (Curr Opin Neurobiol. 2017; 44:89-93) and Sorribes et al., (Front Neural Circuits. 2013 Nov. 13; 7:178).\nIn brief, sleep behavior was recorded in a 96-well plate and analysed during the lights-off period (22:00-08:00). First, all behavior was dichotomized into 1-s bins of movement or non-movement. […] All activity that was slower than that threshold was computed as non-movement. Thus, rendering a dichotomized record of the behavior in either movement or non-movement. Next, the dichotomized record was transformed into bins of sleep and wake. Following previously established sleep criteria in adults, and adapted to larval fish (Yokogawa et al., PLoS Biol. 2007; 5(10):2379-97, Sorribes et al., Front Neural Circuits. 2013; 7:178, and Sigurgeirsson et al., Behav Brain Res. 2013; 256:377-90), six or more consecutive 1-s bins of non-movement were counted as sleep and all else was counted as wake. That is, the seventh second and above were classified as sleep; all other bouts were classified as wake. Once the number of sleep and wake bouts was calculated, five different sleep parameters were assessed (i.e. sleep fragmentation, sleep ratio, velocity during sleep, wake bout duration(s), and sleep bout duration(s)). Sleep fragmentation was defined as the number of transitions between sleep and wake bouts per hour. Sleep ratio was calculated as the percentage of total night time that the fish was considered asleep. Velocity during sleep (mm/s) was defined as the average velocity throughout the night time. Wake bout duration(s) was defined as the average length of wake bouts. Sleep bout duration(s) was defined as the average length of sleep bouts."}, "[3]": {"conditions": "Tan et al., Proc Natl Acad Sci USA 2002; cited from earlier work"}, "Lphn3.1 HOM larvae [4]": {"tested_on": "Lphn3.1 HOM larvae", "test": "Motor assay in the zebrafish model of ADHD (Lphn3.1 knock-out larvae)", "type": "in vivo, zebrafish (Danio rerio)", "from_the_text": "Zebrafish larvae carrying a knock-out of the Latrophilin3 (Lphn3.1) gene were generated by CRISPR-Cas9. Zebrafish were kept in a 14:10 light: dark cycle in 3 or 10 L multi tank constant flow system (Aquatic Habitats, Apopka, FL, USA). For behavioral analysis a total number of 881, 6 days-post fertilization (dpf) embryos carrying a homozygous knock-out of the Lphn3.1 gene were used in the study. Adult zebrafish with a homozygous knock-out of the Lphn3.1 gene and adult zebrafish with a wild-type Lphn3.1 gene were fed three times a day on a variable diet of TetraMin flakes (Tetra Holding GmbH, Melle, Germany) and live Artemia. […]\nFollowing a 24 hour acclimation period, behavioral recordings were made. Locomotor activity was recorded between […] and 6.00 pm at 6 dpf during alternating light and dark conditions, presented in 30-minute intervals. For this period, average distance moved (mm) by the larvae was calculated as the mean of the total distance swum during five separate 30-minute intervals immediately after transition of light conditions. […]\nData was obtained using EthoVision XT (Version Nov. 5, 2016, Noldus) and exported to Microsoft Excel for analysis. […] For analysis of Lphn 3.1 larvae treated with moxonidine statistical differences were evaluated using one-way ANOVA with Dunnett two-sided post hoc analysis. […]"}, "Lphn3.1 WT larvae": {"tested_on": "Lphn3.1 WT larvae", "test": "Motor assay in wild-type zebrafish larvae", "type": "in vivo, zebrafish (Danio rerio)"}}, "note": "“Also recorded” adds a separate entry of the source. Marks after values point to notes of the source that are not given here.", "data": [{"compound": "COc1nc(C)nc(Cl)c1NC1=NCCN1", "note": "[Moxonidine, moxonidine]", "values": [{"measurement": "spontaneous alternation, dose dependence", "setting": "[1]; 0.1 mg/kg, 0.3 mg/kg and 1 mg/kg, FIG. 4", "result": "dose-dependent increase in spontaneous alternation"}, {"measurement": "spontaneous alternation", "setting": "[1]; 0.3 mg/kg vs mice exposed to scopolamine, p<0.001", "result": "significant increased spontaneous alternation"}, {"measurement": "spontaneous alternation", "setting": "[1]; 1 mg/kg vs mice exposed to scopolamine, p<0.0001", "result": "significant increased spontaneous alternation"}, {"measurement": "SleepDuration (sleep bout duration) Mean Difference (I − J)", "setting": "Lphn3.1 HOM larvae [2]; 1 uM vs HOM - DMSO", "result": -1.586, "unit": "s"}, {"measurement": "WakeDuration (wake bout duration) Mean Difference (I − J)", "setting": "Lphn3.1 HOM larvae [2]; 1 uM vs HOM - DMSO", "result": 0.8031, "unit": "s"}, {"measurement": "Velocity (during sleep) Mean Difference (I − J)", "setting": "Lphn3.1 HOM larvae [2]; 1 uM vs HOM - DMSO", "result": "−0.02492", "unit": "mm/s"}, {"measurement": "SleepRatio Mean Difference (I − J)", "setting": "Lphn3.1 HOM larvae [2]; 1 uM vs HOM - DMSO", "result": "−0.04916"}, {"measurement": "SleepFragmentation Mean Difference (I − J)", "setting": "Lphn3.1 HOM larvae [2]; 1 uM vs HOM - DMSO", "result": 3.2294}, {"measurement": "SleepDuration (sleep bout duration) Mean Difference (I − J)", "setting": "Lphn3.1 HOM larvae [2]; 10 uM vs HOM - DMSO", "result": -1.0974, "unit": "s"}, {"measurement": "WakeDuration (wake bout duration) Mean Difference (I − J)", "setting": "Lphn3.1 HOM larvae [2]; 10 uM vs HOM - DMSO", "result": -0.00334, "unit": "s"}, {"measurement": "Velocity (during sleep) Mean Difference (I − J)", "setting": "Lphn3.1 HOM larvae [2]; 10 uM vs HOM - DMSO", "result": "−.07640* mm/s"}, {"measurement": "SleepRatio Mean Difference (I − J)", "setting": "Lphn3.1 HOM larvae [2]; 10 uM vs HOM - DMSO", "result": "−0.02153"}, {"measurement": "SleepFragmentation Mean Difference (I − J)", "setting": "Lphn3.1 HOM larvae [2]; 10 uM vs HOM - DMSO", "result": 5.727}, {"measurement": "SleepDuration (sleep bout duration) Mean Difference (I − J)", "setting": "Lphn3.1 HOM larvae [2]; 30 uM vs HOM - DMSO", "result": -1.57, "unit": "s"}, {"measurement": "WakeDuration (wake bout duration) Mean Difference (I − J)", "setting": "Lphn3.1 HOM larvae [2]; 30 uM vs HOM - DMSO", "result": 3.687, "unit": "s"}, {"measurement": "Velocity (during sleep) Mean Difference (I − J)", "setting": "Lphn3.1 HOM larvae [2]; 30 uM vs HOM - DMSO", "result": "−.05041* mm/s"}, {"measurement": "SleepRatio Mean Difference (I − J)", "setting": "Lphn3.1 HOM larvae [2]; 30 uM vs HOM - DMSO", "result": "−0.06247"}, {"measurement": "SleepFragmentation Mean Difference (I − J)", "setting": "Lphn3.1 HOM larvae [2]; 30 uM vs HOM - DMSO", "result": "−1.7339"}, {"measurement": "comparison of all sleep parameters (summary)", "setting": "Lphn3.1 HOM larvae [2]; 1, 10, 30 μM, FIG. 6A-6D", "result": "only a slight increase in velocity"}, {"measurement": "sedation in the rotarod assay", "setting": "[3]", "result": "less sedation compared to clonidine and brimonidine"}, {"measurement": "average distance moved over the five lights-on phases", "setting": "Lphn3.1 HOM larvae [4]; 1 μM, 10 μM or 30 μM vs vehicle control (DMSO), FIG. 3", "result": "differed significantly from vehicle control and untreated larvae; also recorded: Statistically significant differences"}, {"measurement": "behavioral deficits (24 hour velocity spectrogram)", "setting": "Lphn3.1 HOM larvae [4]; 10 μM, Lphn3.1 HOM larvae, FIG. 5", "result": "rectifies the behavioral deficits"}, {"measurement": "velocity in wild-type larvae", "setting": "Lphn3.1 WT larvae", "result": "increase velocity"}, {"measurement": "behavioral parameters (24 hour velocity spectrogram)", "setting": "Lphn3.1 WT larvae; 10 μM, FIG. 5", "result": "no effect on behavioral parameters"}]}]}
